Experimental data: patent US8129384B2, “Imidazo[1,2-a]pyrazines as orexin receptor antagonists” (Glaxo Group Limited, priority 2008, dated 2012)
Counter-ions that a name gives are not always drawn.

Columns and labels:
[1] = target: T1, human cloned orexin-2 receptor (Homo sapiens, UniProt O43614); assay: Antagonist affinity at human Orexin-2 receptor using FLIPR ([Ca2+]i); format: cell-based; conditions: CHO-hOX2 cells, EC80 hOrexinA stimulus, functional pKi from IC50 by modified Cheng-Prusoff correction; read-out: fpKi value at the human cloned orexin-2 receptor (converted)
T1 construct: expressed in transfected cells
T1 sequence (O43614 1-444): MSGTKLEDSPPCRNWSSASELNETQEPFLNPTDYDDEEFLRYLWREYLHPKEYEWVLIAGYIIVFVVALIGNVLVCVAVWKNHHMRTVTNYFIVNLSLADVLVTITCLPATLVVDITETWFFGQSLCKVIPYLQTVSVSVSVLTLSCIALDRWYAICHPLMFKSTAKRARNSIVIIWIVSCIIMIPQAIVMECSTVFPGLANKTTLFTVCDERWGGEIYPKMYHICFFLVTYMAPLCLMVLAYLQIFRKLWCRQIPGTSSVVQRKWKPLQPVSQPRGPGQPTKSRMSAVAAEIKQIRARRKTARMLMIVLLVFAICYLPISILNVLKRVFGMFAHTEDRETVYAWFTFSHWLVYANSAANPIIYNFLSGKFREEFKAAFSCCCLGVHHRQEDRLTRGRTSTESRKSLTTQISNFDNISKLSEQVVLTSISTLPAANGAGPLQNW
Experimental: (§1) Determination of Antagonist Affinity at Human Orexin-1 and 2 Receptors Using FLIPR
(§2) Adherent Chinese Hamster Ovary (CHO) cells, stably expressing the recombinant human Orexin-1 (hOX1) or human Orexin-2 receptors (hOX2), were maintained in culture in Alpha Minimum Essential Medium (Gibco/Invitrogen, cat. no.; 22571-020), supplemented with 10% decomplemented foetal bovine serum (Life Technologies, cat. no. 10106-078) and 400 ug/mL Geneticin G418 (Calbiochem, cat. no. 345810). Cells were grown as monolayers under 95%:5% air:CO2 at 37° C. and passaged every 3-4 days. The highest passage used was 25. […]
(§3) An agonist stimulus 384-well plate containing 50 μL/well of human orexin A (hOrexinA) was prepared just before using by diluting with buffer a stock plate: final concentration is equivalent to the calculated EC80 for hOrexinA. […]
(§4) The loaded cells were then incubated for 10 min at 37° C. with test compound. The plates were then placed into a FLIPR™ (Molecular Devices, UK) to monitor cell fluorescence (λex=488 nm, λEM=540 nm) (Sullivan E, Tucker E M, Dale I L. Measurement of [Ca^2+]i using the fluometric imaging plate reader (FLIPR). In: Lambert D G (ed.), Calcium Signaling Protocols. New Jersey: Humana Press, 1999, 125-136). A baseline fluorescence reading was taken over a 5 to 10 second period, and then 10 μL of EC80 hOrexinA solution was added. […]

[2] = target: T2, human cloned orexin-1 receptor (Homo sapiens, UniProt O43613); assay: Antagonist affinity at human Orexin-1 receptor using FLIPR ([Ca2+]i); format: cell-based; conditions: CHO-hOX1 cells, EC80 hOrexinA stimulus, functional pKi from IC50 by modified Cheng-Prusoff correction; read-out: fpKi value at the human cloned orexin-1 receptor (converted)
T2 construct: expressed in transfected cells
T2 sequence (O43613 1-425): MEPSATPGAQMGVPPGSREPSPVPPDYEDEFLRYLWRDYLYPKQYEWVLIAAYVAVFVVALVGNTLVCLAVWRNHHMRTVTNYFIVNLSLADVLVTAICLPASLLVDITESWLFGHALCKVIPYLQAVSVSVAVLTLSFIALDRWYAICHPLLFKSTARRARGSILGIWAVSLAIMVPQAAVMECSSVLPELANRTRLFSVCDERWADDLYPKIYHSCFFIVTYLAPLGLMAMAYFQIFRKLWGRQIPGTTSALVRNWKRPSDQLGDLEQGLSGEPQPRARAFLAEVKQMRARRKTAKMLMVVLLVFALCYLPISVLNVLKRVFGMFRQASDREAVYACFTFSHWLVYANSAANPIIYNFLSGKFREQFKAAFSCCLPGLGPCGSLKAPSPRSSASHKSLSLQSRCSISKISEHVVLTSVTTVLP
Experimental: as §1, §2, §3, §4

Ki [1]: 6.31 nM
Ki [2]: 5.01 nM
Compound: Cc1cn2cc(C[C@@H]3CCCCN3C(=O)c3nc(C)sc3-c3ccccc3)nc2c(C)n1 [Example 1, 6,8-dimethyl-2-({(2S)-1-[(2-methyl-5-phenyl-1,3-thiazol-4-yl)carbonyl]-2-piperidinyl}methyl)imidazo[1,2-a]pyrazine (HCl salt)]
